# Measurements reported in patent US10214492B2, “Heterocyclic inhibitors of MCT4” (Vettore, LLC, priority 2016, dated 2019).
# Legend:
# [1] = Metabolic stability in human liver microsomes (in vitro t1/2); assay type: in vitro ADME; details: for half-life at 2 µM: read-out: Human microsome t1/2, min; for Human microsome % 60 min: human liver microsomes
# Summary of the method: (§1)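 Test compound (2 μM final) was added to NADPH-supplemented microsomes at 0.5 mg/mL protein and sampled over 60 min (0–60 min time points). In vitro t1/2 was calculated as −0.693/k, with k the slope of ln percent parent remaining, measured by LC-MS/MS, against time.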
# MCT1 = MCT1 (Homo sapiens (Human), UniProt P53985); test: Assay 4: MCT1-mediated lactate transport in BT20 breast cancer cells; assay type: cell-based; details: Table 27
# MCT1, sequence (P53985 whole entry): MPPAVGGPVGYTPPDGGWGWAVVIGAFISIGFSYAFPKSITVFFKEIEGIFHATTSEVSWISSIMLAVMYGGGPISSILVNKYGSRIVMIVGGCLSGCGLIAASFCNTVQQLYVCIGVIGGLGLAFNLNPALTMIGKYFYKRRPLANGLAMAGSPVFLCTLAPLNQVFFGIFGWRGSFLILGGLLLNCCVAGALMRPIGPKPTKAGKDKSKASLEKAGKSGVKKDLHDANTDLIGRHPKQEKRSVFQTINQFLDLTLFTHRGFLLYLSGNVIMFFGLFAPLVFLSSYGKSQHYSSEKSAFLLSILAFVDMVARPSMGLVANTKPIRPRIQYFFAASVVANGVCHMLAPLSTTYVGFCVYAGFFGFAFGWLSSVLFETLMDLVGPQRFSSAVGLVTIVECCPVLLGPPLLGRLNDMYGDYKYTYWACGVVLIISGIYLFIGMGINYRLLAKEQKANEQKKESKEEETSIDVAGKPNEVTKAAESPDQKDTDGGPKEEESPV
# MCT1, sequence (P35613 140-385 partner): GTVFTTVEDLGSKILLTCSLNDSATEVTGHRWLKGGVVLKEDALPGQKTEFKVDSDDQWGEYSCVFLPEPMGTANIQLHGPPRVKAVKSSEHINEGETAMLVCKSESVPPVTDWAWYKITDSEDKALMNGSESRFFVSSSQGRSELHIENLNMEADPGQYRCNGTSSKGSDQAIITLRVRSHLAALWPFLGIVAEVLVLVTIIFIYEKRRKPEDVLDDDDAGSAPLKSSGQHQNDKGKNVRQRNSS
# Summary of the method: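 Transport started with 10 mM L-lactate on BCECF-loaded BT20 cells in Tyrode's Solution, pH 7.4. Dye loading: BCECF-AM ester (30 mM DMSO stock), 5 min at 37° C, then one wash.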
# MCT4 = MCT4 (Homo sapiens (Human), UniProt O15427); test: Assay 3: MCT4-mediated lactate transport in MDA-MB-231 breast cancer cells; assay type: cell-based; details: MDA-MB-231 cells; lactate transport
# MCT4, sequence (O15427 whole entry, looked up): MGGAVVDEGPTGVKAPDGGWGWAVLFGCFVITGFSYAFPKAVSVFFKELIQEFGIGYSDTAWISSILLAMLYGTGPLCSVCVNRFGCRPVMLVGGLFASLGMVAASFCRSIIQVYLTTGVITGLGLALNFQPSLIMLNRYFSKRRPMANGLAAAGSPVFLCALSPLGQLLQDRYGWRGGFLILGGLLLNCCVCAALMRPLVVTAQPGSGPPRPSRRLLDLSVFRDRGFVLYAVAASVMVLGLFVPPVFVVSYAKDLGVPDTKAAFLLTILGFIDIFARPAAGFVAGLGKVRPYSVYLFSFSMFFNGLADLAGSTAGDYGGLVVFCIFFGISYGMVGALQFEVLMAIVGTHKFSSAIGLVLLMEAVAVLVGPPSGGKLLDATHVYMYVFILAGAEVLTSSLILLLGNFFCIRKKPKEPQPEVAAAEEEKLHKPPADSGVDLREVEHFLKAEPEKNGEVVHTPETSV
# MCT4, sequence (P35613 whole entry partner, looked up): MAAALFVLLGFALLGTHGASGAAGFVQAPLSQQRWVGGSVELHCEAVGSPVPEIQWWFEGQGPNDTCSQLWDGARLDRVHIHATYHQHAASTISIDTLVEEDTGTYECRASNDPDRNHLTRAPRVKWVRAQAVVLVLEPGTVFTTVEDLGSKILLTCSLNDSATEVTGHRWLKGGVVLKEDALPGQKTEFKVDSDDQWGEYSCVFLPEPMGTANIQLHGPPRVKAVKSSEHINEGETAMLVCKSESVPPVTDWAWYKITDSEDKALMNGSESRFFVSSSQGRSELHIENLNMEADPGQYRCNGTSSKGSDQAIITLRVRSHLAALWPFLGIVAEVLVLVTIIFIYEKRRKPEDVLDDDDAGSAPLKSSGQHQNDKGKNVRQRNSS
# Summary of the method: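 Read-out is BCECF fluorescence tracking the intracellular pH shift from MCT4-mediated lactate/H+ co-transport. Before measurement, MDA-MB-231 cells take up BCECF-AM for 5 min at 37° C, then are washed into Tyrode's Solution, pH 7.4.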
# [2] = Pharmacokinetic assay in rat (IV 3 mg/kg, PO 10 mg/kg); assay type: in vivo; details: Male Sprague-Dawley rat; for Rat F: oral bioavailability; for Rat F / half-life: PO 10 mg/kg; for half-life / Vd: plasma; for half-life: read-out: Rat t1/2 (converted); for Vd: volume of distribution, read-out: Rat Vss
# Excerpt: (§2) The following are assays that may be used to evaluate the pharmacokinetic properties of Formula (I) in mouse or rat. The assays follow a common procedure recited below.
# (§3) 1. […] For PO (oral gavage), DMSO/PEG400 (10:90). Formulations freshly prepared on the day of dosing or prior to dosing. Storage at room temperature.
# (§4) 2. Test Species: For Mouse: Male CD1 strain, approximately 6-8 weeks in age, approximately 20-30 g. For Rat: Male Sprague-Dawley strain, approximately 6-8 weeks in age, approximately 200-300 g.
# (§5) 3. Dose Level: For IV, 3 mg/kg. For PO, 10 mg/kg.
# (§6) 4. Number of animals: 3 per assay.
# (§7) 5. PK time points: For IV (plasma): 5 min, 15 min, 1, 2, 4, 6, 8, 24 h post dose. For PO (plasma): 15 min, 30 min, 1, 2, 4, 6, 8, 24 h post dose.
# (§8) 6. Blood Sample Collection and Processing. Blood was collected (˜0.2 mL per time point) from jugular vein. Blood of each sample was transferred into plastic micro centrifuge tubes containing anticoagulant of EDTA-K2. Blood samples were centrifuged at 2,000 g for 5 minutes at 4° C. to obtain plasma.
# (§9) 7. Samples Analysis: Plasma samples were analyzed using LC/MS/MS method, and pharmacokinetic parameters (half-life: t1/2; oral bioavailability: F; volume of distribution: Vss).
# [3] = Adjuvant-induced arthritis model in rat: Mechanical Allodynia test (MA, Von Frey); assay type: in vivo; details: SD rat, CFA-induced arthritis; PO 3 days post CFA; compared to Dexamethasone
# [4] = Metabolic stability in mouse liver microsomes (in vitro t1/2); assay type: in vitro ADME; details: for Mouse microsome % 60 min: mouse liver microsomes; for half-life at 2 µM: read-out: Mouse microsome t1/2, min
# Summary of the method: as §1
# [5] = Metabolic stability in rat liver microsomes (in vitro t1/2); assay type: in vitro ADME; details: for Rat microsome % 60 min: rat liver microsomes; for half-life at 2 µM: read-out: Rat microsome t1/2, min
# Summary of the method: as §1
# [6] = Pharmacokinetic assay in mouse (IV 3 mg/kg, PO 10 mg/kg); assay type: in vivo; details: Male CD1 mouse; for Mouse F: oral bioavailability; for Mouse F / half-life: PO 10 mg/kg; for half-life / Vd: plasma; for half-life: read-out: Mouse t1/2 (converted); for Vd: volume of distribution, read-out: Mouse Vss
# Excerpt: as §2, §3, §4, §5, §6, §7, §8, §9
# [7] = Adjuvant-induced arthritis model in rat: Difference of Weight Bearing test (DWB); assay type: in vivo; details: SD rat, CFA-induced arthritis; PO 3 days post CFA; compared to Dexamethasone
# [8] = human liver microsomes 0.5 mg/mL, 2 μM compound
# [9] = mouse liver microsomes 0.5 mg/mL, 2 μM compound
# [10] = rat liver microsomes 0.5 mg/mL, 2 μM compound
Compound,"half-life at 2 µM [1, 8] [h]",Human microsome % 60 min [1] [%],IC50 (MCT1) [nM],IC50 (MCT4) [nM],Rat F [2] [%],half-life [2] [h],Vd [2] [L/kg],"Mechanical Allodynia (Von Frey), Minimal Efficacious Dose [3] [mg/kg]","Mouse microsome t1/2, min [4, 9]",Mouse microsome % 60 min [4] [%],"Rat microsome t1/2, min [5, 10]",Rat microsome % 60 min [5] [%],Mouse F [6] [%],half-life [6] [h],Vd [6] [L/kg],"Difference in Weight Bearing, Minimal Efficacious Dose [7] [mg/kg]","Human microsome t1/2, min [1, 8]","half-life at 2 µM [4, 9] [h]","half-life at 2 µM [5, 10] [h]"
"CC(C)COc1cccc(-c2cc(COC(C)(C)C(=O)O)nn2-c2cccc3cnn(C)c23)c1 [Example 170, 2-methyl-2-([1-(1-methyl-1H-indazol-7-yl)-5-[3-(2-methylpropoxy)phenyl]-1H-pyrazol-3-yl]methoxy]propanoic acid]",7.85,87,32000,2,18,2.4,1.1,3,∞,99,∞,95,100,2.6,2,3,,,
"CCn1ncc2ccc(-c3cc(CO[C@](C)(CC)C(=O)O)nn3Cc3ccccc3Cl)cc21 [Example 220, (2R)-2-([1-[(2-chlorophenyl)methyl]-5-(1-ethyl-1H-indazol-6-yl)-1H-pyrazol-3-yl]methoxy)-2-methylbutanoic acid]",,105,33000,0.54,29,2.8,0.68,3,,102,,86,100,6.9,1.7,3,∞,17.3,4.87
CCn1ncc2ccc(-c3cc(COC(C)(C)C(=O)O)nn3-c3ccccc3N3CCCC3)cc21 [Example 229],1.72,64,42000,1.9,100,2.7,1,3,,81,,69,100,4.2,1.9,3,,3.27,1.82
"CC(C)(OCc1cc(-c2cccc(OC3CC3)c2)n(-c2ccccc2N2CCC2)n1)C(=O)O [Example 232, 2-([1-[2-(Azetidin-1-yl)phenyl]-5-(3-cyclo-propoxyphenyl)-1H-pyrazol-3-yl]methoxy)-2-methylpropanoic acid]",1.62,65,29000,2.1,52,2.6,0.15,1,,59,,50,56,3.1,0.21,1,,1.22,1.17
